Laboratory results reported in US4517296A, “Antibiotic acmimycin and its production” (Toyo Jozo Kabushiki Kaisha, priority 1982, dated 1985).
Values after ≈ are worked out from the molar mass of the structure shown.

Experiments:
Staph. aureus ATCC6538P = experiment: MIC by agar dilution method, Staph. aureus ATCC6538P; format: cell-based; conditions: Staphylococcus aureus, read-out: minimum inhibitory concentration (MIC)
Staph. aureus MS27 = experiment: MIC by agar dilution method, Staph. aureus MS27; format: cell-based; conditions: Staphylococcus aureus, read-out: minimum inhibitory concentration (MIC)
Staph. aureus 0119 = experiment: MIC by agar dilution method, Staph. aureus 0119; format: cell-based; conditions: Staphylococcus aureus, read-out: minimum inhibitory concentration (MIC)
[1] = test system: Staph. epidermidis sp-al-1; experiment: MIC by agar dilution method, Staph. epidermidis sp-al-1; format: cell-based; conditions: Staphylococcus epidermidis, SPAL1, read-out: minimum inhibitory concentration (MIC)
Strept. pyogenes N.Y. 5 = experiment: MIC by agar dilution method, Strept. pyogenes N.Y. 5; format: cell-based; conditions: Streptococcus pyogenes, read-out: minimum inhibitory concentration (MIC)
[2] = test system: Bacillus subtilis ATCC6633; experiment: MIC by agar dilution method, Bacillus subtilis ATCC6633; format: cell-based; conditions: read-out: minimum inhibitory concentration (MIC)
E. coli NIHJ-JC2 = experiment: MIC by agar dilution method, E. coli NIHJ-JC2; format: cell-based; conditions: Escherichia coli, NIHJJC2, read-out: minimum inhibitory concentration (MIC)
E. coli W3630 = experiment: MIC by agar dilution method, E. coli W3630; format: cell-based; conditions: Escherichia coli, read-out: minimum inhibitory concentration (MIC)
E. coli W3630RGN14 = experiment: MIC by agar dilution method, E. coli W3630RGN14; format: cell-based; conditions: Escherichia coli, W3630RGN14, read-out: minimum inhibitory concentration (MIC)
Cit. freundii GN346 = experiment: MIC by agar dilution method, Cit. freundii GN346; format: cell-based; conditions: Citrobacter freundii, read-out: minimum inhibitory concentration (MIC)
[3] = test system: Kleb. pneumoniae ATCC10031; experiment: MIC by agar dilution method, Kleb. pneumoniae ATCC10031; format: cell-based; conditions: Klebsiella pneumoniae, read-out: minimum inhibitory concentration (MIC)
[4] = test system: Salm. enteritidis Gaertner; experiment: MIC by agar dilution method, Salm. enteritidis Gaertner; format: cell-based; conditions: Salmonella enterica, read-out: minimum inhibitory concentration (MIC)
Shigella sonnei E33 = experiment: MIC by agar dilution method, Shigella sonnei E33; format: cell-based; conditions: read-out: minimum inhibitory concentration (MIC)
Proteus morganii 0239 = experiment: MIC by agar dilution method, Proteus morganii 0239; format: cell-based; conditions: Morganella morganii, read-out: minimum inhibitory concentration (MIC)
Proteus rettgeri ACR = experiment: MIC by agar dilution method, Proteus rettgeri ACR; format: cell-based; conditions: Providencia rettgeri, read-out: minimum inhibitory concentration (MIC)
[5] = test system: Enterobac. aerogenes 0655; experiment: MIC by agar dilution method, Enterobac. aerogenes 0655; format: cell-based; conditions: read-out: minimum inhibitory concentration (MIC)
Enterobac. cloacae GN336 = experiment: MIC by agar dilution method, Enterobac. cloacae GN336; format: cell-based; conditions: read-out: minimum inhibitory concentration (MIC)
Serratia marcescens = experiment: MIC by agar dilution method, Serratia marcescens; format: cell-based; conditions: read-out: minimum inhibitory concentration (MIC)
[6] = test system: Pseudo. aeruginosa IAM1095; experiment: MIC by agar dilution method, Pseudo. aeruginosa IAM1095; format: cell-based; conditions: Pseudomonas aeruginosa, read-out: minimum inhibitory concentration (MIC)
Solubility = format: physicochemical

For CNC1C(O)C(NC)C2OC3(O)C(OC)=CC(C)OC3OC2C1O (stereo not drawn) [acmimycin], the MIC (Staph. aureus ATCC6538P) was 100 µg/mL (≈ 289 µM), the MIC (Staph. aureus MS27) was 100 µg/mL (≈ 289 µM) and the MIC (Staph. aureus 0119) was greater than 100 µg/mL. For the same compound, the MIC [1] was 50 µg/mL (≈ 144 µM), the MIC (Strept. pyogenes N.Y. 5) was 3.1 µg/mL (≈ 8.95 µM) and the MIC [2] was 25 µg/mL (≈ 72.2 µM). For the same compound, the MIC (E. coli NIHJ-JC2) was 50 µg/mL (≈ 144 µM), the MIC (E. coli W3630) was 25 µg/mL (≈ 72.2 µM) and the MIC (E. coli W3630RGN14) was greater than 100 µg/mL. It also gave an MIC (Cit. freundii GN346) greater than 100 µg/mL, an MIC [3] of 12.5 µg/mL (≈ 36.1 µM) and an MIC [4] of 25 µg/mL (≈ 72.2 µM). The MIC (Shigella sonnei E33) was 25 µg/mL (≈ 72.2 µM), the MIC (Proteus morganii 0239) was greater than 100 µg/mL and the MIC (Proteus rettgeri ACR) was 100 µg/mL (≈ 289 µM). It also gave an MIC [5] greater than 100 µg/mL, an MIC (Enterobac. cloacae GN336) of 50 µg/mL (≈ 144 µM) and an MIC (Serratia marcescens) of 25 µg/mL (≈ 72.2 µM). For the same compound, the MIC [6] was greater than 100 µg/mL, the Solubility (Solubility; in acetone) was “insoluble” and the Solubility (Solubility; in benzene) was “insoluble”. For the same compound, the Solubility (Solubility; in ethyl acetate) was “insoluble”, the Solubility (Solubility; in lower alcohols such as methanol) was “slightly soluble” and the Solubility (Solubility; in water) was “soluble”.
